From ChEMBL document CHEMBL1128752, “1,2,3-Trisubstituted cyclohexyl substance P antagonists: significance of the ring nitrogen in piperidine-based NK-1 receptor antagonists” (Bioorg Med Chem Lett, 1995) come the findings set out here.

The target in the first test is T1, Substance-P receptor (Homo sapiens, UniProt P25103). Description: Binding affinity towards Neurokinin -1(NK-1) receptor of human by using [125I]- Tyr8 substance P as a radioligand in CHO cells. The class given is cell-based.
T1 sequence (P25103 whole entry): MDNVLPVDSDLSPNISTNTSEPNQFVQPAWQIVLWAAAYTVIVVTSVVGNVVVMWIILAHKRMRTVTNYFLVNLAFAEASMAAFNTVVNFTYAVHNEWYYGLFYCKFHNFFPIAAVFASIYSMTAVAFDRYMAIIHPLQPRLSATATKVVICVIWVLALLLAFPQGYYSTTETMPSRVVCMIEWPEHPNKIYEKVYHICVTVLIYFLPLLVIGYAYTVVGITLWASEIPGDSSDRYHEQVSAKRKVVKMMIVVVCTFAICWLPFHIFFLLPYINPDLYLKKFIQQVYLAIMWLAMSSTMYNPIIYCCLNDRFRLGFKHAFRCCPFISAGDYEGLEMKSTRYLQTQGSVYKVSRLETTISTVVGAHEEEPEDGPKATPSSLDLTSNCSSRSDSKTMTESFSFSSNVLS
Conditions: not given
As to `NC(=O)C[C@@H]1CCC[C@@H](OCc2cc(C(F)(F)F)cc(C(F)(F)F)c2)[C@H]1c1ccccc1`, the IC50 (as a rule, the concentration needed to halve the response being measured) was not below 157 nM. In turn, `OC(COCc1cc(C(F)(F)F)cc(C(F)(F)F)c1)C(c1ccccc1)c1ccccc1` (configuration not stated) came in with an IC50 of 17 nM.

`NC(=O)C[C@H]1CCC[C@H](OCc2cc(C(F)(F)F)cc(C(F)(F)F)c2)[C@@H]1c1ccccc1` (stereo in doubt; 22) gave a half-inhibitory concentration (IC50) of 1.5 nM. For the compound `CN1CCC[C@H](OCc2cc(C(F)(F)F)cc(C(F)(F)F)c2)[C@@H]1c1ccccc1`, the IC50 is 14 nM. On the same count and under the same terms, the value for `NC(=O)NC[C@H]1CCC[C@H](OCc2cc(C(F)(F)F)cc(C(F)(F)F)c2)[C@@H]1c1ccccc1` was 6.7 nM. For the compound `O=C(NCc1cccnc1)NC[C@H]1CCC[C@H](OCc2cc(C(F)(F)F)cc(C(F)(F)F)c2)[C@@H]1c1ccccc1`, the IC50 is 34 nM. Compared with the last compound, the IC50 is about 5.1-fold higher. In turn, `FC(F)(F)c1cc(CO[C@H]2CCCO[C@H]2c2ccccc2)cc(C(F)(F)F)c1` returned an IC50 of 881 nM. Turning to `FC(F)(F)c1cc(CO[C@H]2CCCC[C@H]2c2ccccc2)cc(C(F)(F)F)c1`, the IC50 turned out to be 2630 nM. Compound `NC(=O)C[C@H]1CCC[C@H](OCc2cc(C(F)(F)F)cc(C(F)(F)F)c2)[C@@H]1c1ccccc1` (stereo in doubt; 19a) registered an IC50 of 3 nM. Regarding `O=C(C[C@H]1CCC[C@H](OCc2cc(C(F)(F)F)cc(C(F)(F)F)c2)[C@@H]1c1ccccc1)NCc1ccncc1`, the IC50 came to 7 nM. Against the preceding compound, the IC50 is about 2.3-fold higher. The compound `O=C(C[C@H]1CCC[C@H](OCc2cc(C(F)(F)F)cc(C(F)(F)F)c2)[C@@H]1c1ccccc1)NCc1cccnc1` displayed an IC50 of 3.7 nM.

The target in a further test is T1, Substance-P receptor. The following applies: CHO.
Description: Dissociation constant towards Neurokinin -1(NK-1) receptor of human by using [125I]- Tyr8 substance P as a radioligand in CHO cells
Compound `FC(F)(F)c1cc(CO[C@H]2CCCN[C@H]2c2ccccc2)cc(C(F)(F)F)c1` yielded a pKa of 8.3.
